Consider 67 molecules from patent publication US8916565B2, “Pyrrolopyrazine-spirocyclic piperidine amides as modulators of ion channels” (priority 2011, dated 2014).

For this assay, the target named is human NaV subtype, like NaV 1.7 (Homo sapiens, UniProt Q15858). As to the kind of experiment: E-VIPR optical membrane potential assay with electrical stimulation. The format is cell-based. To be noted: active against one or more sodium channels; Table 3 does not name the assay or NaV subtype; read-out: Binned Activity Data (IC50).
Sequence of human NaV subtype, like NaV 1.7 (Q15858 whole entry): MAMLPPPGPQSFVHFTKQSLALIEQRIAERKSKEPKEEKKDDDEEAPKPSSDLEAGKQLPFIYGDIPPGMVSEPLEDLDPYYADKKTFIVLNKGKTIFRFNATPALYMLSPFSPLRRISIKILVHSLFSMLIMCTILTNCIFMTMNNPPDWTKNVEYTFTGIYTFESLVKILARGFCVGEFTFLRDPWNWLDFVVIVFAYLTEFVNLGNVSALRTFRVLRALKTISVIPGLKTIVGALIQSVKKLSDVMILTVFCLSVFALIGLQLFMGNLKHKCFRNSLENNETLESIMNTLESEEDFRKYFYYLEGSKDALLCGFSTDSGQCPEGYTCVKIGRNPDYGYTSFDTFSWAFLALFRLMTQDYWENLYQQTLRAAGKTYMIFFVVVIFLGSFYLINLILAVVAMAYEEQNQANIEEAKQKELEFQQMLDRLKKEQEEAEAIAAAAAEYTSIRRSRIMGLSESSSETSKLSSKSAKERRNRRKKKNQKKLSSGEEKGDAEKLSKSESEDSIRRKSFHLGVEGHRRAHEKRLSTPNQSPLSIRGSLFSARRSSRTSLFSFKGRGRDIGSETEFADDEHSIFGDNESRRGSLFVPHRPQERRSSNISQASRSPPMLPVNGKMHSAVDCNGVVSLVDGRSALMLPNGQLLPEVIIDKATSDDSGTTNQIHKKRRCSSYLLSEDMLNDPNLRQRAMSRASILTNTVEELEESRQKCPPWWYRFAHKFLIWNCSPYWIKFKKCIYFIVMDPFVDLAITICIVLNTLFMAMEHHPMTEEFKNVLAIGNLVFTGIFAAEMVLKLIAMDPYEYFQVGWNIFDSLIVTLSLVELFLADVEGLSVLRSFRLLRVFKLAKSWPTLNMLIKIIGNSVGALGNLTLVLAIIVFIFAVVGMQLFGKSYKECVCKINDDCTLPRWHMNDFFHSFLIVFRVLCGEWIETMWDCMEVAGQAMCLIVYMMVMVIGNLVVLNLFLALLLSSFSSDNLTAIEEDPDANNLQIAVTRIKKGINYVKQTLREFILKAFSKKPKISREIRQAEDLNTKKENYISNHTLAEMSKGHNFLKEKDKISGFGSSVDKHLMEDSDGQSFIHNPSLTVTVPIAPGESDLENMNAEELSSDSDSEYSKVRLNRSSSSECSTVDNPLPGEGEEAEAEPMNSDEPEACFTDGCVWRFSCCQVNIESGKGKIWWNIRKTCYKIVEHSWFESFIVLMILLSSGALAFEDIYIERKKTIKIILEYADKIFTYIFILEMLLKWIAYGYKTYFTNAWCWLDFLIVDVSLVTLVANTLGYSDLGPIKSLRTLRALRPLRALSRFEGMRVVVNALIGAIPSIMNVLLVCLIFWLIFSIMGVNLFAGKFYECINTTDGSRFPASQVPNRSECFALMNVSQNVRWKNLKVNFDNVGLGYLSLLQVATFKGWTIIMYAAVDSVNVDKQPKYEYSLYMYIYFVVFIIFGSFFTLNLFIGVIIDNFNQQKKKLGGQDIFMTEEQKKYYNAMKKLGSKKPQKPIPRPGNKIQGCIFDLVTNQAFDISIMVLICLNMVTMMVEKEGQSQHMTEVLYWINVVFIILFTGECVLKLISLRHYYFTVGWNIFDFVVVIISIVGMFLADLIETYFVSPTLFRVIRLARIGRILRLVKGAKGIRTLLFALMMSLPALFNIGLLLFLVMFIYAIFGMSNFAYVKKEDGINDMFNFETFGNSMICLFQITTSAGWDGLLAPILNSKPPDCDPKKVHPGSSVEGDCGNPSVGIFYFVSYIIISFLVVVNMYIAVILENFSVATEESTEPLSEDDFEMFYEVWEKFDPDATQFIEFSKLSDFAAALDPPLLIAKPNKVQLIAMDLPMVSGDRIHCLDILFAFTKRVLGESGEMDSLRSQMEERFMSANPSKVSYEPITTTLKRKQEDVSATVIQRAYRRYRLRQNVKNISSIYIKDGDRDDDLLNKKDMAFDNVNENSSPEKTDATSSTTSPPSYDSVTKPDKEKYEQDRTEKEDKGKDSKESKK

By IC50 is commonly meant the concentration that inhibits the measured activity by half. For `CN1CCn2c(C(F)(F)F)cc(F)c2C12CCN(C(=O)c1ccc(C3CC3)cc1)CC2` [Compound 184], the IC50 was 2000 to 5000 nM. `CN1CCn2c(C(=O)C(F)(F)F)ccc2C12CCN(C(=O)c1ccc(OC(F)(F)F)cc1)CC2` [Compound 185]: the IC50 was no more than 2000 nM. Take `COCCN1CCn2c(C(F)(F)F)ccc2C12CCN(C(=O)c1ccc(OC(C)C)c(OC)c1)CC2` [Compound 186]: the IC50 is no more than 2000 nM. In the case of `COCCOc1ccc(C(=O)N2CCC3(CC2)c2c(F)cc(C(F)(F)F)n2CCN3C)cc1OC` [Compound 187], the IC50 is no more than 2000 nM. In the case of `COc1cc(C(=O)N2CCC3(CC2)c2c(F)cc(C(F)(F)F)n2CCN3C)ccc1OCC(C)C` [Compound 188] it was no more than 2000 nM; in that of `CCCCc1ccc(C(=O)N2CCC3(CC2)c2ccc(C(C)=O)n2CCN3C)cc1` [Compound 189], no more than 2000 nM; in that of `CCCOc1ccc(C(=O)N2CCC3(CC2)c2ccc(C(F)(F)F)n2CCN3C)cc1OC` [Compound 190], no more than 2000 nM. Consider `Cc1cc(C(=O)N2CCC3(CC2)c2ccc(C(=O)C(F)(F)F)n2CCN3C)ccc1-c1cncnc1` [Compound 191], for which the IC50 is no more than 2000 nM. As for `CCNS(=O)(=O)c1ccc(C(=O)N2CCC3(CC2)c2ccc(C(C)=O)n2CCN3C)cc1` [Compound 192], the IC50 was greater than 5000 nM. Turning to `CN1CCn2c(C(F)(F)F)cc(F)c2C12CCN(C(=O)c1ccc(C(C)(C)O)cc1)CC2` [Compound 193], the IC50 is no more than 2000 nM. In the case of `CNS(=O)(=O)c1ccc(C(=O)N2CCC3(CC2)c2ccc(C(=O)C(F)(F)F)n2CCN3C)cc1C` [Compound 194] it was no more than 2000 nM.

As for `CN1CCn2c(Cl)ccc2C12CCN(C(=O)c1ccc(N3CCCCC3)cc1)CC2` [Compound 195], the IC50 was greater than 5000 nM.

Regarding `CN1CCn2c(C(F)(F)F)ccc2C12CCN(C(=O)c1ccc(OC(C)(C)C)cn1)CC2` [Compound 196], the IC50 was greater than 5000 nM.

For the molecule `CC1(C)Cn2c(C(=O)C(F)(F)F)ccc2C2(CCN(C(=O)c3ccc(S(=O)(=O)C4CC4)cc3)CC2)N1` [Compound 197], the IC50 was no more than 2000 nM. Take `Cc1nc(C(=O)N2CCC3(CC2)NCC(C)n2c(C(=O)C(F)(F)F)ccc23)ccc1OC(C)C` (stereo not shown) [Compound 198]: the IC50 is no more than 2000 nM. With `Cc1cc(C(=O)N2CCC3(CC2)c2ccc(C(=O)C(C)(C)C)n2CCN3C)ccc1OC(C)C` [Compound 199], the IC50 was no more than 2000 nM.

`Cc1nc(C(=O)N2CCC3(CC2)c2ccc(C(F)(F)F)n2CCN3C)ccc1OC(C)C` [Compound 200]: the concentration for half-maximal inhibition (IC50) was no more than 2000 nM. As for `Cc1cc(C(=O)N2CCC3(CC2)c2ccc(C(=O)C(F)(F)F)n2CCN3C)ccc1O` [Compound 201], the IC50 is no more than 2000 nM.

With `CC(C)Oc1ccc(C(=O)N2CC[C@]3(c4ccc(C(F)(F)F)n4CCN3C)[C@H](F)C2)cc1CO` [Compound 202], the IC50 fell in the range of 2000 to 5000 nM. Turning to `CCCCOc1ccc(C(=O)N2CCC3(CC2)c2ccc(C(F)(F)F)n2CCN3C)cc1OC` [Compound 203], the half-maximal inhibitory concentration (IC50) is no more than 2000 nM. Consider `COc1ccc(C(=O)N2CCC3(CC2)NC(C)(C)Cn2c(C(C)=O)ccc23)cc1Cl` [Compound 204], for which the IC50 is greater than 5000 nM. On to `COc1ccc(C(=O)N2CCC3(CC2)c2ccc(C(C)=O)n2CCN3C)cc1-c1ccccc1` [Compound 205], for which the IC50 was greater than 5000 nM.

Consider `Cc1nc(C(=O)N2CCC3(CC2)c2c(F)cc(C(F)(F)F)n2CCN3C)ccc1OC(C)C` [Compound 206], for which the IC50 is no more than 2000 nM. Take `Cc1cc(C(=O)N2CCC3(CC2)c2ccc(C(=O)C(F)(F)F)n2C[C@H](C)N3C)ccc1O` [Compound 207]: the IC50 is no more than 2000 nM. On to `CC1(C)Cn2c(C(=O)C(F)(F)F)ccc2C2(CCN(C(=O)c3ccc(S(=O)(=O)C(C)(C)C)cc3)CC2)N1` [Compound 208], for which the IC50 is no more than 2000 nM. Take `COc1cc(C(=O)N2CCC3(CC2)c2ccc(Cl)n2CCN3C)ccc1C(C)(C)C` [Compound 209]: the IC50 was no more than 2000 nM. As for `CCOC(=O)N1CCn2c(C#N)ccc2C12CCN(C(=O)c1ccc(OC(C)C)c(C)c1)CC2` [Compound 210], the IC50 lay within 2000 to 5000 nM. Regarding `Cc1cc(C(=O)N2CCC3(CC2)c2ccc(C(F)(F)C(F)(F)F)n2CCN3C)ccc1OC(C)C` [Compound 211], the IC50 is no more than 2000 nM. In the case of `CCCCOc1cc(C(=O)N2CCC3(CC2)c2ccc(C(F)(F)F)n2CCN3C)ccc1OC` [Compound 212] it was no more than 2000 nM; in that of `COc1cc(C(=O)N2CCC3(CC2)c2ccc(C(F)(F)F)n2CCN3C)ccc1C(C)(C)O` [Compound 213], no more than 2000 nM. For the molecule `CN1CCn2c(C(=O)C(F)(F)F)ccc2C12CCN(C(=O)c1ccc(COc3ccccc3)cc1)CC2` [Compound 214], the half-inhibitory concentration (IC50) was no more than 2000 nM. `Cc1cc(C(=O)N2CCC3(CC2)c2c(F)cc(C(F)(F)F)n2CCN3C)ccc1S(=O)(=O)C(C)C` [Compound 215]: the IC50 is no more than 2000 nM. In the case of `Cc1cc(C(=O)N2CCC3(CC2)c2ccc(C(=O)C(F)(F)F)n2CCN3C)ccc1-c1ccc(C#N)nc1` [Compound 216] it was no more than 2000 nM; in that of `Cc1cc(C(=O)N2CCC3(CC2)c2c(F)cc(C(F)(F)F)n2CCN3C)ccc1OCC(C)(C)O` [Compound 217], no more than 2000 nM; in that of `CC1(C)Cn2c(C(=O)C(F)(F)F)ccc2C2(CCN(C(=O)c3ccc(-c4ccccc4)c(O)c3)CC2)N1` [Compound 218], greater than 5000 nM. In the case of `CC(=O)c1ccc2n1CCN(C)C21CCN(C(=O)c2ccc(OCCC(C)C)cc2)CC1` [Compound 219] it was no more than 2000 nM; in that of `CC(C)Oc1ccc(C(=O)N2CCC3(CC2)c2ccc(Cl)n2CCN3C)cc1C#N` [Compound 220], 2000 to 5000 nM.

Consider `CC(C)c1ccc(C(=O)N2CCC3(CC2)c2ccc(Cl)n2CCN3C)cc1` [Compound 221], for which the IC50 is greater than 5000 nM. Take `Cc1cc(C(=O)N2CCC3(CC2)NC(C)Cn2c(C(F)(F)F)ccc23)ccc1OC(C)C` (stereo not shown) [Compound 222]: the IC50 is no more than 2000 nM. Consider `COc1ccc(C(=O)N2CCC3(CC2)c2ccc(C(=O)C(F)(F)F)n2C(C)(C)CN3C)cc1C` [Compound 223], for which the IC50 fell in the range of 2000 to 5000 nM. With `CCCc1ccc(C(=O)N2CCC3(CC2)c2ccc(Cl)n2CCN3C)cc1` [Compound 224], the IC50 was greater than 5000 nM. With `CC(=O)c1ccc2n1C(C)(C)CN(C)C21CCN(C(=O)c2ccc(C(C)(C)O)c(F)c2)CC1` [Compound 225], the IC50 was greater than 5000 nM. In the case of `CN1CCn2c(ccc2C(F)(F)C(F)(F)F)C12CCN(C(=O)c1ccc(CC(C)(C)O)c(F)c1)CC2` [Compound 226], the IC50 was no more than 2000 nM. Regarding `COc1cc(C(=O)N2CCC3(CC2)c2ccc(C(F)(F)F)n2CCN3C(=O)N(C)C)ccc1OC(C)C` [Compound 227], the IC50 is greater than 5000 nM. With `CN1CCn2c(C(F)(F)F)cc(Cl)c2C12CCN(C(=O)c1ccc(C3(O)CCC3)cc1)CC2` [Compound 228], the IC50 was no more than 2000 nM. In the case of `CCCOc1cc(C(=O)N2CCC3(CC2)c2ccc(Cl)n2CCN3C)ccc1OC` [Compound 229], the IC50 lay in the range of 2000 to 5000 nM. In the case of `COc1cc(C(=O)N2CCC3(CC2)c2ccc(C(C)=O)n2CCN3C)ccc1OCC(C)C` [Compound 230] it was no more than 2000 nM. Regarding `Cc1cc(C(=O)N2CCC3(CC2)c2cc(C(=O)C(F)(F)F)cn2C(C)(C)CN3C)ccc1OC(C)C` [Compound 231], the IC50 was greater than 5000 nM. Take `CC(C)Oc1ccc(C(=O)N2CCC3(CC2)NC(C)(C)Cn2c(C(=O)C(F)(F)F)ccc23)cc1F` [Compound 232]: the IC50 was no more than 2000 nM.

As for `CC(C)Oc1ccc(C(=O)N2CCC3(CC2)c2ccc(C(=O)C(F)(F)F)n2CCN3C)cc1` [Compound 233], the IC50 is no more than 2000 nM. On to `COc1cc(C(=O)N2CCC3(CC2)c2ccc(Cl)n2CCN3C)ccc1OC(C)C` [Compound 234], for which the IC50 is greater than 5000 nM. In the case of `Cc1cc(C(=O)N2CCC3(CC2)NCC(C)n2c(C(=O)C(F)(F)F)ccc23)ccc1C(C)(C)O` (stereo not shown) [Compound 235] it was no more than 2000 nM; in that of `Cc1cc(C(=O)N2CCC3(CC2)c2ccc(C(=O)C(F)(F)F)n2CCN3C)ccc1-c1cccc(Cl)c1` [Compound 236], no more than 2000 nM; in that of `CN1CCn2c(C(=O)C(F)(F)F)ccc2C12CCN(C(=O)c1ccc(COCCC(F)(F)F)cc1)CC2` [Compound 237], no more than 2000 nM. As for `Cc1cc(C(=O)N2CCC3(CC2)c2ccc(C(=O)C(F)(F)F)n2CCN3C)cc(C)c1O` [Compound 238], the IC50 was no more than 2000 nM. In the case of `COc1ccc(C(=O)N2CCC3(CC2)c2cc(C(=O)C(F)(F)F)cn2C(C)(C)CN3C)cc1C` [Compound 239] it was greater than 5000 nM; in that of `COc1ccc(C(=O)N2CCC3(CC2)c2ccc(C(=O)C(F)(F)F)n2C(C)CN3C)cc1C(F)(F)F` (stereo not shown) [Compound 240], no more than 2000 nM. In the case of `CCCCOc1cc(C(=O)N2CCC3(CC2)NCCn2c(C(F)(F)F)ccc23)ccc1OC` [Compound 241] it was greater than 5000 nM. In the case of `CN1CCn2c(C(F)(F)F)cc(F)c2C12CCN(C(=O)c1ccc(C3(O)CCC3)cc1)CC2` [Compound 242] it was no more than 2000 nM; in that of `CC(C)Oc1ccc(C(=O)N2CCC3(CC2)c2ccc(C(=O)C(C)(C)C)n2CCN3C)cc1Cl` [Compound 243], no more than 2000 nM; in that of `CN1CCn2c(C(F)(F)F)ccc2[C@]12CCN(C(=O)c1ccc(S(=O)(=O)NC3CC3)cc1)C[C@H]2F` [Compound 244], no more than 2000 nM. As to `COCCOc1ccc(C(=O)N2CCC3(CC2)c2ccc(C(F)(F)C(F)(F)F)n2CCN3C)cc1OC` [Compound 245], the IC50 was no more than 2000 nM. In the case of `CC(=O)c1ccc2n1CCN(C)C21CCN(C(=O)c2ccc(S(=O)(=O)C(C)C)c(C)c2)CC1` [Compound 246], the IC50 is greater than 5000 nM. On to `COc1cc(C(=O)N2CCC3(CC2)N[C@H]2CCCC[C@H]2n2cccc23)ccc1OCCC(C)C` [Compound 247], for which the IC50 is no more than 2000 nM. For `Cc1cc(C(F)F)n2ncc(C(=O)N3CCC4(CC3)c3ccc(C(=O)C(C)(C)C)n3CCN4C)c2n1` [Compound 248], the IC50 is no more than 2000 nM. Consider `Cc1cc(C(=O)N2CCC3(CC2)c2c(F)cc(C(F)(F)F)n2CCN3C)ccc1OCCCO` [Compound 249], for which the IC50 was no more than 2000 nM. With `CC(C)Oc1ccc(C(=O)N2CCC3(CC2)c2ccc(Cl)n2CCN3C)cc1Cl` [Compound 250], the IC50 was no more than 2000 nM.
